Experimental data as given in US11566007B2, “Ras inhibitors” (Revolution Medicines, Inc., priority 2019, dated 2023).
Several values for one entry are separate records, joined by “and”; a condition that tells them apart may be missing. Equal values may be shown once. Read-outs that look alike come from different tables or passages of the source.

Legend:
NCI-H358 (K-Ras G12C) = test: CellTiter-Glo cell viability assay, NCI-H358; format: cell-based, human; conditions: NCI-H358, 5-day treatment, class symbols, read-out: Additional H358 Cell Viability assay data (K-Ras G12C, IC50)
Method in brief: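 Steps: compound dispensed into wells holding cells; incubation to day 5; ~30 min room-temperature equilibration; luminescence read; sample signal divided by mean DMSO signal, times 100; four-parameter logistic curve fit.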

K-Ras G12C = K-Ras G12C (Homo sapiens (Human), UniProt P01116+P62937, G12C); test: Ras-Raf (BRAF RBD) disruption / FRET / MOA assay, KRAS G12C; format: biochemical; conditions: KRAS G12C; Ras-Raf disruption/FRET/MOA assay; read-out: IC50* KRAS G12C FRET data
Method in brief: (§1)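 Compounds, top final concentration 30 μM in 10-point 3-fold series, incubated 3 hours at 25° C with nucleotide-loaded Ras, cyclophilin A and BRAF RBD.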

K-Ras G13C = K-Ras G13C (Homo sapiens (Human), UniProt P01116+P62937, G13C); test: Ras-Raf (BRAF RBD) disruption / FRET / MOA assay, KRAS G13C; format: biochemical; conditions: KRAS G13C; Ras-Raf disruption/FRET/MOA assay; read-out: IC50* KRAS G13C FRET data
Method in brief: as §1

KRAS G12S = KRAS G12S (Homo sapiens (Human), UniProt P01116+P62937, G12S); test: Ras-Raf (BRAF RBD) disruption / FRET / MOA assay, KRAS G12S; format: biochemical; conditions: Ras-Raf disruption/FRET/MOA assay; class symbols; read-out: KRAS G12S FRET data IC50
Method in brief: as §1

KRAS G12D = KRAS G12D (Homo sapiens (Human), UniProt P01116+P62937, G12D); test: Ras-Raf (BRAF RBD) disruption / FRET / MOA assay, KRAS G12D; format: biochemical; conditions: Ras-Raf disruption/FRET/MOA assay; class symbols; read-out: KRAS G12D FRET data IC50
Method in brief: as §1

KRAS G12V = KRAS G12V (Homo sapiens (Human), UniProt P01116+P62937, G12V); test: Ras-Raf (BRAF RBD) disruption / FRET / MOA assay, KRAS G12V; format: biochemical; conditions: read-out: IC50* KRAS G12V FRET data
Method in brief: as §1

KRAS WT = KRAS WT (Homo sapiens (Human), UniProt P01116+P62937); test: Ras-Raf (BRAF RBD) disruption / FRET / MOA assay, KRAS WT; format: biochemical; conditions: read-out: IC50* KRAS WT FRET data
Method in brief: as §1

KRAS G13D = KRAS G13D (Homo sapiens (Human), UniProt P01116+P62937, G13D); test: Ras-Raf (BRAF RBD) disruption / FRET / MOA assay, KRAS G13D; format: biochemical; conditions: read-out: IC50* KRAS G13D FRET data
Method in brief: as §1

KRAS Q61H = KRAS Q61H (Homo sapiens (Human), UniProt P01116+P62937, Q61H); test: Ras-Raf (BRAF RBD) disruption / FRET / MOA assay, KRAS Q61H; format: biochemical; conditions: Ras-Raf disruption/FRET/MOA assay; class symbols; read-out: KRAS Q61H FRET data IC50
Method in brief: (§2)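 TR-FRET disruption of nucleotide-loaded Ras binding to BRAF RBD via compound-driven ternary complex with cyclophilin A. Compound as 10-point 3-fold series from 30 μM final, 3 h at 25° C, then anti-His Eu-W1024 (10 nM) and anti-GST allophycocyanin (50 nM) for 1.5 h. IC50 from decreased FRET ratio versus DMSO.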

NRAS G12C = NRAS G12C (Homo sapiens (Human), UniProt P01111+P62937, G12C); test: Ras-Raf (BRAF RBD) disruption / FRET / MOA assay, NRAS G12C; format: biochemical; conditions: read-out: IC50* NRAS G12C FRET data
Method in brief: as §1

NRAS Q61R = NRAS Q61R (Homo sapiens (Human), UniProt P01111+P62937, Q61R); test: Ras-Raf (BRAF RBD) disruption / FRET / MOA assay, NRAS Q61R; format: biochemical; conditions: NRAS Q61R; Ras-Raf disruption/FRET/MOA assay; read-out: IC50* NRAS Q61R FRET data
Method in brief: as §2

NRAS WT = NRAS WT (Homo sapiens (Human), UniProt P01111+P62937); test: Ras-Raf (BRAF RBD) disruption / FRET / MOA assay, NRAS WT; format: biochemical; conditions: read-out: IC50* NRAS WT FRET data
Method in brief: as §2

Sequence of K-Ras G12C (P01116-2 other isoform, or with tags, fused parts or gaps G12C): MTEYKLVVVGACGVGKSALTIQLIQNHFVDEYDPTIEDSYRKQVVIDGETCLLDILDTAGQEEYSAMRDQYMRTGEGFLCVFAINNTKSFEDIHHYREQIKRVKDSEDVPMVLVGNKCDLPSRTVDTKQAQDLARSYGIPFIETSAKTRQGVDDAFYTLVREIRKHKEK
Sequence of K-Ras G12C (P62937 whole entry): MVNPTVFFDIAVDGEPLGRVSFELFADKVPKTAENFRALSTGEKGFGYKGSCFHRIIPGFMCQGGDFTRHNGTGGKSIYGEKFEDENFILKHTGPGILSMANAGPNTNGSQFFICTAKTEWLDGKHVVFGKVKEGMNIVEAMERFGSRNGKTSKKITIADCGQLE
Sequence of KRAS G12V (P01116-2 other isoform, or with tags, fused parts or gaps G12V): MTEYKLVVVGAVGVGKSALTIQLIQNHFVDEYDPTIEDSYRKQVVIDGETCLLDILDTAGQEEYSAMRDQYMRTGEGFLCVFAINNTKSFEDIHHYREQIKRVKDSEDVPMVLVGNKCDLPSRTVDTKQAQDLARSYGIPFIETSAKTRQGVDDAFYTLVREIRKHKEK
Sequence of KRAS G12V (P62937 whole entry): as the sequence (P62937 whole entry) above
Sequence of KRAS G13D (P01116-2 other isoform, or with tags, fused parts or gaps G13D): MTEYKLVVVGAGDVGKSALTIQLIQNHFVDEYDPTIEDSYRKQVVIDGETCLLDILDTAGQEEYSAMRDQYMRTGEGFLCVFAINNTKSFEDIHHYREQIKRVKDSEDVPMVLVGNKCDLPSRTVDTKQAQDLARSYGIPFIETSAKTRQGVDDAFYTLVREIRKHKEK
Sequence of KRAS G13D (P62937 whole entry): as the sequence (P62937 whole entry) above
Sequence of KRAS WT (P01116-2 other isoform, or with tags, fused parts or gaps): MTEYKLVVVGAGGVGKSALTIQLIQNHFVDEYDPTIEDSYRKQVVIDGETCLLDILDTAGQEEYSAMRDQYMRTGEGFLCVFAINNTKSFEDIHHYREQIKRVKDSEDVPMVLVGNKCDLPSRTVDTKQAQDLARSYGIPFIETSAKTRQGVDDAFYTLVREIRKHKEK
Sequence of KRAS WT (P62937 whole entry): as the sequence (P62937 whole entry) above
Sequence of NRAS Q61R (P01111 whole entry Q61R): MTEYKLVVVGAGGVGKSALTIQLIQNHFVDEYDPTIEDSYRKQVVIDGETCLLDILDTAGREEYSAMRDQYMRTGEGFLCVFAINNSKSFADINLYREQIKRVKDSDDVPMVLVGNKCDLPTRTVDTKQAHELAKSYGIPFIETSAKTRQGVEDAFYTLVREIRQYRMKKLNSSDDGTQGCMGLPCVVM
Sequence of NRAS Q61R (P62937 whole entry): as the sequence (P62937 whole entry) above
Sequence of K-Ras G13C (P01116-2 other isoform, or with tags, fused parts or gaps G13C): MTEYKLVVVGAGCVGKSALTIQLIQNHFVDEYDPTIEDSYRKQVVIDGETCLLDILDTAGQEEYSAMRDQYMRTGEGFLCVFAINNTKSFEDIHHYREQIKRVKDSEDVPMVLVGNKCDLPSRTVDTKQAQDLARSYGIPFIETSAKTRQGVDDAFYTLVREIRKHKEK
Sequence of K-Ras G13C (P62937 whole entry): as the sequence (P62937 whole entry) above
Sequence of KRAS Q61H (P01116-2 other isoform, or with tags, fused parts or gaps Q61H): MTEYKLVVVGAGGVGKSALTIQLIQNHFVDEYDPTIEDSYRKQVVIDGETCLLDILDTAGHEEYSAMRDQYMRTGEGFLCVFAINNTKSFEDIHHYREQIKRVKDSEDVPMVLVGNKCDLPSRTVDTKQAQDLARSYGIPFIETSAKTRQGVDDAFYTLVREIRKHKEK
Sequence of KRAS Q61H (P62937 whole entry): as the sequence (P62937 whole entry) above
Sequence of NRAS G12C (P01111 whole entry G12C): as the sequence (P01111 whole entry Q61R) above, with G12C, R61Q counted along it
Sequence of NRAS G12C (P62937 whole entry): as the sequence (P62937 whole entry) above
Sequence of NRAS WT (P01111 whole entry): as the sequence (P01111 whole entry Q61R) above, with R61Q counted along it
Sequence of NRAS WT (P62937 whole entry): as the sequence (P62937 whole entry) above
Sequence of KRAS G12D (P01116-2 other isoform, or with tags, fused parts or gaps G12D): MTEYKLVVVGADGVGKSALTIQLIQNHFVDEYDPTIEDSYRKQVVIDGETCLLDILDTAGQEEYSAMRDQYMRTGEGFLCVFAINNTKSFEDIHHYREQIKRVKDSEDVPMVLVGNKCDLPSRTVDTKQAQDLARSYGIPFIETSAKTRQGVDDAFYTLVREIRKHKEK
Sequence of KRAS G12D (P62937 whole entry): as the sequence (P62937 whole entry) above
Sequence of KRAS G12S (P01116-2 other isoform, or with tags, fused parts or gaps G12S): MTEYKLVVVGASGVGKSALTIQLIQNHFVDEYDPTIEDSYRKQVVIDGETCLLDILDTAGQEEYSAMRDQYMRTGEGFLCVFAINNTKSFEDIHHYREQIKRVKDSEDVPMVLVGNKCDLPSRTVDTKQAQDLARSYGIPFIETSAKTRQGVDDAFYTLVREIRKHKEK
Sequence of KRAS G12S (P62937 whole entry): as the sequence (P62937 whole entry) above

Row | IC50 (NCI-H358 (K-Ras G12C)) | SMILES | IC50 (NCI-H358 (K-Ras G12C); Homo sapiens, NCI-H358, 120 h) | IC50 (K-Ras G12C) | IC50 (K-Ras G13C) | IC50 (KRAS G12S) | IC50 (KRAS G12D) | IC50 (KRAS G12V) | IC50 (KRAS WT) | IC50 (KRAS G13D) | IC50 (KRAS Q61H) | IC50 (NRAS G12C) | IC50 (NRAS Q61R) | IC50 (NRAS WT)
1 | < 0.01 µM | C=CC(=O)N1CC[C@H](C(=O)N(C)[C@H](C(=O)N[C@H]2Cc3cc(O)cc(c3)-c3ccc4c(c3)c(c(-c3cc(C)ccc3[C@H](C)OC)n4CC)CC(C)(C)COC(=O)[C@@H]3CCCN(N3)C2=O)C(C)C)C1 (atropisomer, axis not shown) [Example A167] | 0.01 to 0.1 µM | 0.1 to 1 µM and < 0.01 µM | 0.01 to 0.1 µM and 1 to 10 µM | 1 to 10 µM and 0.01 to 0.1 µM | > 10 µM and 0.1 to 1 µM | 1 to 10 µM and 0.01 to 0.1 µM | 1 to 10 µM and 0.01 to 0.1 µM | 0.1 to 1 µM and > 10 µM | 0.01 to 0.1 µM | 0.1 to 1 µM and < 0.01 µM | 0.1 to 1 µM | 0.01 to 0.1 µM
2 |  | CC#CC(=O)N1CCC(C(=O)N(C)[C@H](C(=O)N[C@H]2Cc3nc(cs3)-c3ccc4c(c3)c(c(-c3cccnc3[C@H](C)OC)n4CC)CC(C)(C)COC(=O)[C@@H]3CCCN(N3)C2=O)C(C)C)C1 (atropisomer, axis not shown) [Example A168] | 0.01 to 0.1 µM | 0.1 to 1 µM | 1 to 10 µM | 1 to 10 µM | > 10 µM | 1 to 10 µM | 1 to 10 µM | > 10 µM | 1 to 10 µM | 1 to 10 µM | 1 to 10 µM | 1 to 10 µM
3 |  | C=CC(=O)N1CC[C@H](C(=O)N(C)[C@H](C(=O)N[C@H]2Cc3cccc(c3)-c3ccc4c(c3)c(c(-c3cccnc3[C@H](C)OC)n4CC(F)F)CC(C)(C)COC(=O)[C@@H]3CCCN(N3)C2=O)C(C)C)C1 (atropisomer, axis not shown) [Example A335] | 0.01 to 0.1 µM | 0.1 to 1 µM | 1 to 10 µM | 1 to 10 µM | > 10 µM | 1 to 10 µM | 1 to 10 µM | 1 to 10 µM | 1 to 10 µM | 0.1 to 1 µM | 1 to 10 µM | 1 to 10 µM
4 |  | C=CC(=O)N1CC[C@H](C(=O)N(C)[C@H](C(=O)N[C@H]2Cc3cc(cc(C(F)F)c3)-c3ccc4c(c3)c(c(-c3cccnc3[C@H](C)OC)n4CC)CC(C)(C)COC(=O)[C@@H]3CCCN(N3)C2=O)C(C)C)C1 (atropisomer, axis not shown) [Example A341, (3S)-1-acryloyl-N-((2S)-1-(((6^3S,4S)-2^5-(difluoromethyl)-1^1-ethyl-1^2-(2-((S)-1-methoxyethyl)pyridin-3-yl)-10,10-dimethyl-5,7-dioxo-6^1,6^2,6^3,6^4,6^5,6^6-hexahydro-1^1H-8-oxa-1(5,3)-indola-6(1,3)-pyridazina-2(1,3)-benzenacycloundecaphane-4-yl)amino)-3-methyl-1-oxobutan-2-yl)-N-methylpyrrolidine-3-carboxamide] | 0.01 to 0.1 µM | 0.1 to 1 µM | 0.1 to 1 µM | 1 to 10 µM | 1 to 10 µM | 1 to 10 µM | 1 to 10 µM | 1 to 10 µM | 0.1 to 1 µM | 0.1 to 1 µM | 1 to 10 µM | 1 to 10 µM
5 |  | C=CC(=O)N1CC(OC[C@H](C(=O)N[C@H]2Cc3cccc(c3)-c3ccc4c(c3)c(c(-c3cccnc3[C@H](C)OC)n4CC(F)(F)F)CC(C)(C)COC(=O)[C@@H]3CCCN(N3)C2=O)C(C)C)C1 (atropisomer, axis not shown) [Example A344] | < 0.01 µM | 0.01 to 0.1 µM | 0.1 to 1 µM | 1 to 10 µM | > 10 µM | 1 to 10 µM | 1 to 10 µM | 1 to 10 µM | 0.1 to 1 µM | 0.01 to 0.1 µM | 1 to 10 µM | 1 to 10 µM
6 |  | C=CC(=O)N1CC(OC[C@H](C(=O)N[C@H]2Cc3cc(cc(C(F)F)c3)-c3ccc4c(c3)c(c(-c3cccnc3[C@H](C)OC)n4CC)CC(C)(C)COC(=O)[C@@H]3CCCN(N3)C2=O)C(C)C)C1 (atropisomer, axis not shown) [Example A345] | 0.1 to 1 µM | 1 to 10 µM | 1 to 10 µM | > 10 µM | > 10 µM | > 10 µM | > 10 µM | > 10 µM | 1 to 10 µM | 1 to 10 µM | > 10 µM | > 10 µM
7 |  | C=CC(=O)N1CC2(COCCN2C(=O)N(C)[C@H](C(=O)N[C@H]2Cc3nc(cs3)-c3ccc4c(c3)c(c(-c3cccnc3[C@H](C)OC)n4CC)CC(C)(C)COC(=O)[C@@H]3CCCN(N3)C2=O)C(C)C)C1 (atropisomer, axis not shown) [Example A352] | < 0.01 µM | 0.01 to 0.1 µM | > 10 µM | > 10 µM | > 10 µM | > 10 µM | 1 to 10 µM | > 10 µM | 1 to 10 µM | 0.01 to 0.1 µM | 1 to 10 µM | 1 to 10 µM
8 |  | C=CC(=O)N1CC[C@@]2(C1)CN(C(=O)N(C)[C@H](C(=O)N[C@H]1Cc3nc(cs3)-c3ccc4c(c3)c(c(-c3cccnc3[C@H](C)OC)n4CC)CC(C)(C)COC(=O)[C@@H]3CCCN(N3)C1=O)C(C)C)CCO2 (atropisomer, axis not shown) [Example A353] | 0.01 to 0.1 µM | 0.01 to 0.1 µM | 0.1 to 1 µM | 0.1 to 1 µM | 0.1 to 1 µM | 0.1 to 1 µM | 0.1 to 1 µM | 0.1 to 1 µM | 0.01 to 0.1 µM | 0.01 to 0.1 µM | 0.1 to 1 µM | 0.1 to 1 µM
9 |  | C=CC(=O)NC[C@H]1CCN1C(=O)N(C)[C@H](C(=O)N[C@H]1Cc2nc(cs2)-c2ccc3c(c2)c(c(-c2cccnc2[C@H](C)OC)n3CC)CC(C)(C)COC(=O)[C@@H]2CCCN(N2)C1=O)C(C)C (atropisomer, axis not shown) [Example A356] | < 0.01 µM | 0.1 to 1 µM | 0.1 to 1 µM | 1 to 10 µM | 1 to 10 µM | 1 to 10 µM | 0.1 to 1 µM | 1 to 10 µM | 0.1 to 1 µM | 0.1 to 1 µM | 0.1 to 1 µM | 0.1 to 1 µM
10 |  | C=C(C)C(=O)N1CC(N(C)C(=O)N(C)[C@H](C(=O)N[C@H]2Cc3nc(cs3)-c3ccc4c(c3)c(c(-c3cccnc3[C@H](C)OC)n4CC)CC(C)(C)COC(=O)[C@@H]3CCCN(N3)C2=O)C(C)C)C1 (atropisomer, axis not shown) [Example A360] | 0.01 to 0.1 µM | 0.1 to 1 µM | 0.1 to 1 µM | 0.1 to 1 µM | 1 to 10 µM | 0.1 to 1 µM | 0.1 to 1 µM | 1 to 10 µM | 0.1 to 1 µM | 0.1 to 1 µM | 0.1 to 1 µM | 0.1 to 1 µM
11 |  | CCn1c(-c2cccnc2[C@H](C)OC)c2c3cc(ccc31)-c1csc(n1)C[C@H](NC(=O)[C@H](C(C)C)N(C)C(=O)N(C)C1CN(C(=O)/C=C/CN(C)C)C1)C(=O)N1CCC[C@H](N1)C(=O)OCC(C)(C)C2 (atropisomer, axis not shown) [Example A361] | 0.01 to 0.1 µM | 0.01 to 0.1 µM | 0.1 to 1 µM | 0.1 to 1 µM | 1 to 10 µM | 0.1 to 1 µM | 0.1 to 1 µM | 0.1 to 1 µM | 0.1 to 1 µM | 0.01 to 0.1 µM | 0.1 to 1 µM | 0.1 to 1 µM
12 |  | CCn1c(-c2cccnc2[C@H](C)OC)c2c3cc(ccc31)-c1csc(n1)C[C@H](NC(=O)CN1CC[C@@]3(CCN(C(=O)C#CC(C)(C)N4CCC4)C3)C1)C(=O)N1CCC[C@H](N1)C(=O)OCC(C)(C)C2 (atropisomer, axis not shown) [Example A364] | 0.1 to 1 µM | 0.1 to 1 µM | 1 to 10 µM | 1 to 10 µM | > 10 µM | 1 to 10 µM | 1 to 10 µM | 1 to 10 µM | 1 to 10 µM | 0.1 to 1 µM | 1 to 10 µM | 1 to 10 µM
